According to patent US11344571B2, “NO containing compositions” (University Court of the University of St. Andrews, priority 2015, dated 2022):
Structures can show the parent of a compound that is named as a salt.

Experiments:
[1] = NO release triggered by constant flow of humid nitrogen gas (11% RH), chemiluminescence nitric oxide analyser; format: physicochemical; conditions: humid nitrogen 11% RH; for total nitric oxide released: in 19 hr
Text: The release of NO from the sample was first triggered by passing a constant flow of humid nitrogen gas (11% RH) over it. The amount of NO released over time was detected using a Sievers NOA 280i chemiluminescence nitric oxide analyser until the emission of NO reached a level lower than 20 ppb.

[2] = NO release from NO-loaded sample submersed in deionized water, chemiluminescence analysis; format: physicochemical
Protocol: The NO-loaded sample was submersed under 5 ml of deionized water in a sealed chamber connected to an NO analyser. A constant flow of nitrogen was bubbled through the suspension while measuring the concentration of NO present in the chamber atmosphere.
The release of NO from the sample triggered by the water was measured in ppm and ppb over time until the level of NO dropped below 20 ppb. The initial burst release of NO reached 40 ppm. The sample released up to 0.035 mmol/g of nitric oxide in 7 hrs (FIG. 5A).

[3] = Gravimetric NO adsorption/desorption isotherms at 298K; format: physicochemical
Protocol: The nitric oxide adsorption/desorption profiles for two further chlorhexidine diacetate samples (25 mg) were collected using a bespoke gravimetric adsorption system. Each sample was exposed to high vacuum at a pressure of 1×10^−4 mbar overnight until no further mass loss was observed. The samples were cooled to 298K using a water bath (temperature accuracy of 0.02K).
For one sample, shown in the outer plot of FIGS. 2A-2B, NO was introduced in increasing increments. After each dose of NO, the mass of the sample was allowed to stabilise (indicating completion of adsorption) before the next addition was made. This process was continued until the introduced pressure of NO was equal to atmospheric pressure. The second sample was exposed to one atmosphere of NO in a single step, and its mass allowed to equilibrate. Data is shown in the inner plot of FIGS. 2A-2B. The desorption profiles of both samples, shown in FIGS. 2A-2B, were measured by reducing the pressure in increments to a final value of 2×10^−2 mbar.

[4] = NO release triggered by UV light (300-400 nm), chemiluminescence analysis
Protocol: After the NO release was completed the sample was kept on the bench at room temperature, exposed to air and humidity for over 48 hr.
The release of NO over time was recorded using the same analyser described above.

For `O=C(O)c1cn(C2CC2)c2cc(N3CCNCC3)c(F)cc2c1=O` [ciprofloxacin], the “duration of initial burst release of NO on humidity” value [1] was “a couple of minutes”.

In the case of `N=C(NCCCCCCNC(=N)NC(=N)Nc1ccc(Cl)cc1)NC(=N)Nc1ccc(Cl)cc1` [chlorhexidine diacetate], the “initial burst release of NO (peak)” value ([2]; 100 mg under 5 ml deionized water, nitrogen bubbled) is reported as 40 ppm, the “total nitric oxide released” value ([2]; in water, in 7 hrs) is reported as “up to 0.035 mmol/g” and the “maximum NO adsorbed, molecules of NO per molecule of chlorhexidine” value ([3]; NO pressure up to atmospheric) is reported as 0.55 molecules of NO per molecule of chlorhexidine. The “maximum NO adsorbed” value ([3]; NO pressure up to atmospheric, gravimetric) was ~0.9 mmole of NO per gram, the “level of stored NO after reapplication of vacuum, molecules per molecule of chlorhexidine” value ([3]; desorption to 2x10^-2 mbar) was “circa 0.25 molecules per molecule of chlorhexidine” and the “level of stored NO after reapplication of vacuum” value ([3]; desorption to 2x10^-2 mbar, both samples) was ~0.4 mmole per gram. For the same molecule, the “UV-triggered immediate burst of NO release” value ([4]; burst from 30 ppb, after over 48 hr on bench in air and humidity) was 105 ppb, the “maximum NO on continuous UV exposure” value ([4]; continuous exposure about 5 mins, after over 48 hr storage in air) was “around 120 ppb” and the “NO release level sustained under continuous UV exposure” value ([4]; for more than 4 hrs) was “over 70 ppb”. For the same molecule, the “maximum NO on continuous UV exposure” value ([4]; sample in water, immediately after water-triggered release, about 10 minutes) was “around 1000 ppb”, the “initial burst of release of NO (peak)” value [1] was 512 PPM and the “total NO release” value ([1]; in 18 hrs) was 0.03 mmol/g. The “total nitric oxide released” value [1] was “up to 0.042 mmol/g”.

For `N=C(NCCCCCCNC(=N)NC(=N)Nc1ccc(Cl)cc1)NC(=N)Nc1ccc(Cl)cc1` [chlorhexidine dihydrochloride], the “UV-triggered burst of NO (peak)” value ([4]; after 2 days on bench in humid air) was “up to 150 ppb”, the “NO level to which UV-triggered burst dropped” value ([4]; over 1 hr, after 2 days in humid air) was 75 ppb and the “duration of initial burst release of NO on humidity” value [1] was “a couple of minutes”.

With `NS(=O)(=O)c1cc(C(=O)O)c(NCc2ccco2)cc1Cl` [furosemide] the “initial burst of release of NO (peak)” value [1] was 512 ppm and the “total nitric oxide released” value [1] was “up to 0.042 mmol/g”.
